Experimental data as given in paper PMC9542723, “Correlation between the drug concentration of polymyxin B and polymyxin B‐associated acute kidney injury in critically ill patients: A prospective study” (Pharmacology Research & Perspectives, 2022).
Positions of bridges follow the written chain, without caps; N, C: chain ends. Non-standard residues stand in square brackets, D forms with d. Residues, ends and D or L forms follow the SMILES beside them. *: point of attachment. X1 = CC[C@H](C)CCCCC(=O)*; Dab = NCC[C@H](N)C(=O)O

Tests used:
[1] = Steady-state serum concentrations of PB (PB1 + PB2) by UHPLC-MS/MS in critically ill patients; format: in vivo, human; details: median (IQR); for Estimated AUC0–24: double the AUC0-12 by linear trapezoidal approximation from three samples
Method: (§1) Inclusion criteria included age ≥ 18 years and intravenous administration of PB for more than 3 days. Exclusion criteria included PB administration of a daily dose of 1.5–2.5 mg/kg <3 days, underlying chronic renal insufficiency or existing AKI, or renal replacement therapy already performed. The loading dose and maintenance dose of PB for each patient depended on the doctors' decisions at a daily dose of 1.5–2.5 mg/kg in evenly two doses. PB was administered as an intermittent infusion over approximately 1 h. Patients were divided into an AKI group and a non‐AKI group according to whether they developed new AKI after PB application according to Kidney Disease Improving Global Outcomes (KDIGO) diagnostic criteria.[20] An increase in serum creatinine (Scr) to 50% of the base value within 7 days or an increase in Scr of more than 26.5 μmol/L within 2 days or oliguria is diagnosed as AKI according to KDIGO's diagnostic criteria.
The estimated area under the plasma concentration–time curve from 0 to 24 h (AUC0–24) was the main PK variable for PB. From each patient, three blood samples were taken after at least […] doses of PB: blood sample A (C max) was collected within 30 min after the end of intravenous infusion of PB for the peak concentration, blood sample B (C 1/2) was a mid‐dose blood sample taken 50% of the way through a dosing interval, and blood sample C (C min) was a pre‐dose concentration taken at the end of a dosing interval (within 30 min of the next dose, see Figure 1). The serum was separated and stored at −70°C until assay.
The PB1 and PB2 serum concentrations were measured using a validated ultrahigh performance liquid chromatography–tandem mass spectrometry assay method.[21] The C max, C 1/2, and C min of steady‐state (after at least 5 doses) PB1 and PB2 components were determined according to the above method: Cmax=Cmax−PB1+Cmax−PB2, C1/2=C1/2−PB1+C1/2−PB2, Cmin=Cmin−PB1+Cmin−PB2,
The estimated area under the concentration–time curve from 0 to 12 h (AUC0–12) was calculated using the linear trapezoidal approximation[22] and the estimated AUC0–24 from 0 to 24 h (AUC0–24) was calculated as double the AUC0–12, [23] assuming a steady state (after at least 4–5 doses) when PB was administered every 12 h.

critically ill patients [2] = details: previous clinical studies; cited from earlier work
Method: Estimated AUC0–24 is a predictor for PB‐AKI, and an estimated AUC0–24 ≥ 97.72 mg·h/L was identified as a significant breakpoint for PB‐AKI.

critically ill patients [3] = experiment: Occurrence of PB-associated acute kidney injury (KDIGO criteria) after intravenous PB; format: in vivo, human; details: critically ill patients without basic renal insufficiency, 26/52, PB i.v. more than 3 days
Method: as §1

critically ill patients [4] = experiment: ROC curve analysis of PB PK parameters for predicting PB-AKI; design: species or system human; details: best cut point by maximised index
Source text: Data are reported as categorical variables or numerical variables. Continuous normally distributed numerical variables are expressed as the means ± standard deviations, and continuous non‐normally distributed variables are expressed as the median (interquartile range). ANOVA test was used to compare the continuous normally distributed variables, Kruskal–Wallis rank sum test was used to compare the continuous non‐normally distributed variables, and Chi‐square test was used to compare the rates. The sensitivity and specificity of C 1/2, C min, and estimated AUC0–24 for the development of AKI were determined using ROC curve analysis. AKI occurrence as the outcome, to maximize the Jorden index to find the best entry point. Statistical significance was defined as p < .05. SPSS version 22.0 (SPSS Inc.) was used for all statistical calculations.

[5] = test system: human renal tubular cells; details: cited from earlier work
Source text: In recent years, PB‐AKI has been increasingly reported, which is a problem that should not be ignored.[13], [17], [28] Studies have shown that the main features of PB‐AKI include acute renal tubular injury and reduced Ccr.[25] In a mouse study, PB distribution in renal tissue after intravenous administration was detected using PB‐specific monoclonal antibody immunostaining and was mainly concentrated in the renal cortex, especially in the proximal tubu ...

Row | Compound | Estimated AUC0–24 ([1]; AKI group (n = 26)) | level at 6 h ([1]; human, iv, AKI group (n = 26), 50% of the way through a 12 h dosing interval, serum, sum PB1+PB2, UHPLC-MS/MS, read-out: C 1/2, middle serum concentration through a dosing interval) | Cmax ([1]; human, iv, AKI group (n = 26), within 30 min after end of 1 h i.v. infusion, serum, sum PB1+PB2, UHPLC-MS/MS, read-out: C max, peak serum concentration of PB) | Estimated AUC0–24 ([1]; non-AKI group (n = 26)) | Estimated AUC0–24 ([1]; total patients (N = 52)) | C max, peak serum concentration of PB ([1]; total patients (N = 52), within 30 min after end of 1 h i.v. infusion, daily dose 1.5-2.5 mg/kg in two doses, serum, sum PB1+PB2, UHPLC-MS/MS) | Estimated AUC0–24 that predicts nephrotoxicity of PB treatment (critically ill patients [2]) | Incidence of AKI caused by intravenous PB (critically ill patients [3]) | Cutoff value for estimated AUC0–24 predicting PB-AKI (critically ill patients [4]) | Cutoff value for C 1/2 predicting PB-AKI (critically ill patients [4]; p = .003) | Concentration of polymyxin in renal tubular cells relative to extracellular [5]
1 | CC[C@H](C)CCCCC(=O)N[C@@H](CCN)C(=O)N[C@H](C(=O)N[C@@H](CCN)C(=O)N[C@H]1CCNC(=O)[C@H]([C@@H](C)O)NC(=O)[C@H](CCN)NC(=O)[C@H](CCN)NC(=O)[C@H](CC(C)C)NC(=O)[C@@H](Cc2ccccc2)NC(=O)[C@H](CCN)NC1=O)[C@@H](C)O [PB, polymyxin B] (X1-[Dab]T[Dab][Dab][Dab][dF]L[Dab][Dab]T; lactam 4-C) | 102.37 (86.18–120.61) mg·h/L | 3940 ng/mL | 6800 ng/mL | 85.5 (69.16–97.55) mg·h/L | 92.07 (77.11–118.02) mg·h/L | 6.69 (5.56–8.36) mg/L | > 100 mg·h/L | 50% | 97.72 mg·h/L | 3.375 mg/L | –
2 | polymyxin | – | – | – | – | – | – | – | – | – | – | 4760 times
